Measured values: patent US20240360193A1, “POLYPEPTIDE DERIVATIVE WITH DUAL GLP-1R AND GIPR TARGETING AGONISTIC EFFECT, AND PREPARATION METHOD AND USE THEREOF” (NANJING ZHIHE MEDICINE TECHNOLOGY CO., LTD., priority 2021, published 2024)
Like-named read-outs stand apart in the source and are kept apart here. Square brackets hold non-standard residues; d marks the D form. Peptide text beside a SMILES is read from it. * marks the point of attachment. X1 = O=C(O)CCCCCCCCCCCCCCCCCCC(=O)NC(CCC(=O)NCCOCCOCCNC(=O)COCCOCC(=O)*)C(=O)O; Aib = CC(C)(N)C(=O)O

Tests used:
[1] = parameters: species or system humans; settings: human, in vivo
Source text: According to disclosed data, an average clinical half-life of the control Tirzepatide in humans is 5.0 days.

in vivo = test: in vivo; parameters: species or system SD rats; settings: rat, sc, 1.35 mg/kg; for MRT: male, SD
Procedure: The polypeptide derivative (1) and Tirzepatide were subcutaneously administered to male rats respectively in a single dose, blood samples of the male rats were then collected at different time points, and a concentration of the compound in plasma was determined by LC-MS/MS and related pharmacokinetic parameters were calculated, to investigate the pharmacokinetic characteristics of the compound in the rats.
16 male SD rats were randomly divided into two groups of eight rats each based on body weights. The rats were fasted for 12 h to 14 h, but water was allowed, one day before the administration. The rats were given food 4 h after the administration.
Sample collection: Before and after the administration, 0.1 mL of blood was sampled from the orbit of each rat under isoflurane anaesthesia, and then added in an EDTAK2 centrifuge tube in an ice bath to be centrifuged at 4° C. at 5000 rpm for 10 min. Then, plasma was collected.
Time points for blood collection of SC groups are 0, 5 min, 15 min, 30 min, 1 h, 2 h, 4 h, 6 h, 8 h, 24 h, 28 h, 32 h, and 48 h. All plasma samples were stored at −80° C. before analysis and testing.
The software Analyst 1.5.1 (Applied Biosystem) was used for data collection and system control. Automatic chromatographic peak integration was used for the sample. The sample concentration was regressed with a ratio of the sample peak area to the internal standard peak area as an index. Linear regression was used with a weighting factor of 1/X^2. Pharmacokinetic parameters were analyzed and processed with a non-compartmental model by using WinNonlin Professional v6.3 (Pharsight, USA). Cmax is a measured maximum plasma concentration. An area AUC(0→t) under a plasma concentration-time curve is obtained through ladder-shape calculation. Tmax is a time of a peak plasma concentration after the administration. The experimental data was expressed as “mean±standard deviation” (Mean±SD, n≥8) or “mean” (Mean, n=8).
Based on the plasma concentration data, the pharmacokinetic parameters after the administration calculated with the on-compartmental model by using WinNonlin V6.3 are shown in the following table.

[2] = human, in vivo; cited from earlier work

Compound	half-life [1] [h]	MRT (in vivo) [h]	AUC(0-inf) (in vivo) [ng·h/mL]	AUC(0-t) (in vivo) [ng·h/mL]	AUMC0-inf (in vivo) [h · h · ng · mL^−1]	AUMC0-t (in vivo) [h · h · ng · mL^−1]	Cmax (in vivo) [ng/mL]	Kel (in vivo) [h⁻¹]	Tmax (in vivo) [h]	half-life (in vivo) [h]	average clinical half-life in humans [2] [h]
CC[C@H](C)[C@H](NC(=O)[C@H](CCCCN)NC(=O)[C@H](CC(=O)O)NC(=O)[C@H](CC(C)C)NC(=O)C(C)(C)NC(=O)[C@@H](NC(=O)[C@H](CO)NC(=O)[C@H](Cc1ccc(O)cc1)NC(=O)[C@H](CC(=O)O)NC(=O)[C@H](CO)NC(=O)[C@@H](NC(=O)[C@H](Cc1ccccc1)NC(=O)[C@@H](NC(=O)CNC(=O)[C@H](CC(=O)O)NC(=O)C(C)(C)NC(=O)[C@@H](N)Cc1ccc(O)cc1)[C@@H](C)O)[C@@H](C)O)[C@@H](C)CC)C(=O)N[C@@H](C)C(=O)N[C@@H](CCC(N)=O)C(=O)N[C@@H](CCCCNC(=O)COCCOCC(=O)NCCOCCOCCNC(=O)CCC(NC(=O)CCCCCCCCCCCCCCCCCCC(=O)O)C(=O)O)C(=O)N[C@@H](C)C(=O)N[C@@H](Cc1ccccc1)C(=O)N[C@H](C(=O)N[C@@H](CCC(N)=O)C(=O)N[C@@H](Cc1c[nH]c2ccccc12)C(=O)N[C@@H](CC(C)C)C(=O)N[C@@H](CC(C)C)C(=O)N[C@@H](C)C(=O)NCC(=O)NCC(=O)N1CCC[C@H]1C(=O)N[C@@H](CO)C(=O)N[C@@H](CO)C(=O)NCC(=O)N[C@@H](C)C(=O)N1CCC[C@H]1C(=O)N1CCC[C@H]1C(=O)N1CCC[C@H]1C(=O)N[C@@H](CO)C(N)=O)C(C)C (some centres unmarked) [Polypeptide derivative (1)] (H-Y[Aib]DGTFTSDYSI[Aib]LDKIAQK(X1)AFVQWLLAGGPSSGAPPPS-NH2)	189	33.6	89700	70400	3022264	1621331	2070	0.0421	25.3	16.7	
CC[C@H](C)[C@H](NC(=O)[C@H](CC(C)C)NC(=O)[C@H](Cc1c[nH]c2ccccc12)NC(=O)[C@H](CCC(N)=O)NC(=O)[C@@H](NC(=O)[C@H](Cc1ccccc1)NC(=O)[C@H](C)NC(=O)[C@H](CCCCNC(=O)COCCOCCNC(=O)COCCOCCNC(=O)CC[C@H](NC(=O)CCCCCCCCCCCCCCCCCCC(=O)O)C(=O)O)NC(=O)[C@H](CCC(N)=O)NC(=O)[C@H](C)NC(=O)[C@@H](NC(=O)[C@H](CCCCN)NC(=O)[C@H](CC(=O)O)NC(=O)[C@H](CC(C)C)NC(=O)C(C)(C)NC(=O)[C@@H](NC(=O)[C@H](CO)NC(=O)[C@H](Cc1ccc(O)cc1)NC(=O)[C@H](CC(=O)O)NC(=O)[C@H](CO)NC(=O)[C@@H](NC(=O)[C@H](Cc1ccccc1)NC(=O)[C@@H](NC(=O)CNC(=O)[C@H](CCC(=O)O)NC(=O)C(C)(C)NC(=O)[C@@H](N)Cc1ccc(O)cc1)[C@@H](C)O)[C@@H](C)O)[C@@H](C)CC)[C@@H](C)CC)C(C)C)C(=O)N[C@@H](C)C(=O)NCC(=O)NCC(=O)N1CCC[C@H]1C(=O)N[C@@H](CO)C(=O)N[C@@H](CO)C(=O)NCC(=O)N[C@@H](C)C(=O)N1CCC[C@H]1C(=O)N1CCC[C@H]1C(=O)N1CCC[C@H]1C(=O)N[C@@H](CO)C(N)=O [Tirzepatide]		25.6	52100	46700	1352210	1003190	1540	0.0680	20	10.6	120
